The results in this text go back to patent US20200121677A1, “SUBSTITUTED 6,7-DIHYDROPYRAZOLO[1,5-a]PYRAZINES AS NEGATIVE ALLOSTERIC MODULATORS OF MGLUR2 RECEPTORS” (Janssen Pharmaceutica NV, priority 2014, published 2020).

The target in one data set is human mGlu2 receptor (Homo sapiens, UniProt Q14416). The experiment in a line: [35S]GTPγS binding assay, mGluR2 negative allosteric modulation (membranes from CHO cells transfected with human mGlu2 receptor, glutamate ~EC80 60 μM).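 As to all read-outs here: membranes preincubated 30 min at 30 °C with compound plus glutamate, then [35S]GTPγS (0.1 nM) incorporation measured over another 30 min at 30 °C.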 The note with it: for GTPγS - hmGluR2 anGT pIC50: membranes with human mGlu2 receptor; for GTPγS - hmGluR2 anGT pIC50 / IC50: glutamate ~EC80 (60 μM), pIC50 = -log IC50 (M); for GTPγS - hmGluR2 anGT Emax: relative maximal effect: maximal % inhibition relative to the control glutamate response; for IC50: GTPγS - hmGluR2 anGT pIC50, membranes with human mGlu2 receptor.

[1] abbreviates: read-out: GTPγS - hmGluR2 anGT Emax, relative maximal effect: maximal % inhibition relative to the control glutamate response.

Counter-ions that a name gives are not always drawn. Like-named read-outs stand apart in the source and are kept apart here.

human mGlu2 receptor, sequence (Q14416 19-872): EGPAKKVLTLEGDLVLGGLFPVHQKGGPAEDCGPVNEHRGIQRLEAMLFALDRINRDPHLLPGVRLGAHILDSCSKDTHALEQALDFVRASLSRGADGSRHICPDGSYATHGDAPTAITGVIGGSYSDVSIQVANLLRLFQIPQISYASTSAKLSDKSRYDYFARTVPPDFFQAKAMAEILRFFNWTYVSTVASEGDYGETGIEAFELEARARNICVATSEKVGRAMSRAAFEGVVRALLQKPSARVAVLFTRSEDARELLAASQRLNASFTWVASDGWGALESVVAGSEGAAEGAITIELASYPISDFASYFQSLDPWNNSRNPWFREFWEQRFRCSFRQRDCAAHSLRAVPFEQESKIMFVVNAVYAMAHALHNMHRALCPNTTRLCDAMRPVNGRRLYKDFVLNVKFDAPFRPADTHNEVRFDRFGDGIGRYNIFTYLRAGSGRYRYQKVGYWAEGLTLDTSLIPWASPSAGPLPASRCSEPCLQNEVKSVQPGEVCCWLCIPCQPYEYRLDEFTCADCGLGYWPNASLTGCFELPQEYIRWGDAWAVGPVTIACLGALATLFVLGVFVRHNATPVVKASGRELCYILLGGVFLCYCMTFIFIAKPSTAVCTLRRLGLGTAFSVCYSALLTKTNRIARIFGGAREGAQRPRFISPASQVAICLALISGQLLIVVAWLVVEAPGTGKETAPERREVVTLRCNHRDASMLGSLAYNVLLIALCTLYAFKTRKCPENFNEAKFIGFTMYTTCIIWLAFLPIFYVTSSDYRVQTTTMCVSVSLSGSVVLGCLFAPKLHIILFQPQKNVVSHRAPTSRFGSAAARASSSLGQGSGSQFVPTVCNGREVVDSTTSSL
Description for human mGlu2 receptor: The [^35S]GTPγS binding assay is a functional membrane-based assay used to study G-protein coupled receptor (GPCR) function whereby incorporation of a non-hydrolysable form of GTP, [^35S]GTPγS (guanosine 5′-triphosphate, labelled with gamma-emitting ^35S), is measured. […] Here we describe the use of the [^35S]GTPγS binding assay using membranes from cells transfected with the human mGlu2 receptor and adapted from Schaffhauser et al. (Molecular Pharmacology, 2003, 4:798-810) for the detection of the negative allosteric modulation (NAM) properties of the compounds of this invention.
CHO-cells were cultured to pre-confluence and stimulated with 5 mM butyrate for 24 h. Cells were then collected by scraping in PBS and cell suspension was centrifuged (10 min at 4000 RPM in benchtop centrifuge). Supernatant was discarded and pellet gently resuspended in 50 mM Tris-HCl, pH 7.4 by mixing with an Ultra Turrax homogenizer. The suspension was centrifuged at 12,400 RPM (Sorvall F14S-6x250Y) for 10 minutes and the supernatant discarded. The pellet was homogenized in 5 mM Tris-HCl, pH 7.4 using an Ultra Turrax homogenizer and centrifuged again (13,000 RPM, 20 min, 4° C.). The final pellet was resuspended in 50 mM Tris-HCl, pH 7.4 and stored at −80° C. in appropriate aliquots before use. Protein concentration was determined by the Bradford method (Bio-Rad, USA) with bovine serum albumin as standard.
Measurement of mGluR2 negative allosteric modulatory activity of test compounds was performed as follows. Test compounds and glutamate were diluted in assay buffer containing 10 mM HEPES acid, 10 mM HEPES salt, pH 7.4, 100 mM NaCl, 3 mM MgCl2 and 10 μM GDP. Human mGlu2 receptor-containing membranes were thawed on ice and diluted in assay buffer supplemented with 18 μg/ml saponin. Membranes were pre-incubated with compound together with a predefined (˜EC80) concentration of glutamate (60 μM) for 30 min at 30° C. After addition of [^35S]GTPγS (f.c. 0.1 nM), assay mixtures were shaken briefly and further incubated to allow [^35S]GTPγS incorporation on activation (30 minutes, 30° C.). Final assay mixtures contained 7 μg of membrane protein in 10 mM HEPES acid, 10 mM HEPES salt, pH 7.4, 100 mM NaCl, 3 mM MgCl2, 10 μM GDP and 10 μg/ml saponin. Total reaction volume was 200 μl. Reactions were terminated by rapid filtration through Unifilter-96 GF/B plates (Perkin Elmer, Massachusetts, USA) using a 96-well filtermate universal harvester. Filters were washed 6 times with ice-cold 10 mM NaH2PO4/10 mM Na2HPO4, pH 7.4. Filters were then air-dried, and 30 μl of liquid scintillation cocktail (Microscint-O) was added to each well. Membrane-bound radioactivity was counted in a Topcount.
Data were calculated as % of the control glutamate response, defined as the response that is generated upon addition of an EC80-equivalent concentration of glutamate.

Consider `C[C@H]1CN(c2ccc(Cl)c(Cl)c2)C(=O)c2c(C(=O)Nc3ccc(F)nc3)cnn21` [compound 56], for which, at human mGlu2 receptor, the “GTPγS - hmGluR2 anGT pIC50” value is given as 8.53 and the “GTPγS - hmGluR2 anGT Emax” value turned out to be 104%.
The compound `Cc1cncc(NC(=O)c2cnn3c2C(=O)N(c2ccc(C(F)(F)F)c(F)c2)C[C@@H]3C)c1` [compound 22] yielded a melting point of 246.7 °C. Moreover, at human mGlu2 receptor, the IC50 was 3.55e-09 M. Also, the Emax on human mGlu2 receptor (setting [1]) is 109%.
On human mGlu2 receptor, `C[C@H]1CN(c2ccc(C(F)(F)F)cc2)C(=O)c2c(C(=O)NCc3ccccc3)cnn21` [compound 67] showed an IC50 of 2e-07 M. Besides, the Emax on human mGlu2 receptor (setting [1]) is 104%.
The like results for `CNC(=O)c1cnn2c1C(=O)N(c1ccc(C(F)(F)F)cc1)C[C@@H]2C` [compound 69] were, in that order, 4.57e-07 M and 103%.
For the compound `C[C@H]1CN(c2ccc(C(F)(F)F)cc2)C(=O)c2c(C(=O)Nc3ccc(S(=O)(=O)F)cc3)cnn21` [compound 167], the melting point worked out at 205.04 °C. On human mGlu2 receptor, this compound had an IC50 of 4.27e-08 M. Moreover, the Emax on human mGlu2 receptor (read-out: GTPγS - hmGluR2 anGT Emax) came to 107%.
On to `COc1ccc(NC(=O)c2cnn3c2C(=O)N(c2ccc(C(F)(F)F)c(OC)n2)C[C@@H]3C)cc1` [compound 121], for which the melting point came to 212.39 °C. The same compound had an IC50 at human mGlu2 receptor of 9.77e-09 M. Also, the Emax on human mGlu2 receptor (setting [1]) is 109%.
The like results for `COc1cc(N2C[C@H](C)n3ncc(C(=O)Nc4cc(C)nc(C)c4)c3C2=O)ccc1C(F)(F)F` [compound 143] were, in that order, 201.6 °C, 8.13e-09 M and 116%.
Take `COCC1CN(c2ccc(C(F)(F)F)cc2)C(=O)c2c(C(=O)Nc3cccnc3)cnn21` (single isomer, unassigned) [compound 159]: on human mGlu2 receptor, the “GTPγS - hmGluR2 anGT pIC50” value was found to be 6.10 and the “GTPγS - hmGluR2 anGT Emax” value was found to be 108%.
`C[C@H]1CN(c2ccc(C(F)(F)F)cc2)C(=O)c2c(C(=O)Nc3cncc(CO)c3)cnn21` [compound 148, (7S)—N-[5-(hydroxymethyl)pyridin-3-yl]-7-methyl-4-oxo-5-[4-(trifluoromethyl)phenyl]-4,5,6,7-tetrahydropyrazolo[1,5-a]pyrazine-3-carboxamide] came in with a melting point of 150.83 °C. Moreover, at human mGlu2 receptor, the IC50 is 1.86e-08 M. In addition, the Emax at human mGlu2 receptor (setting [1]) is 105%.
For `C[C@H]1CN(c2ccc(C(F)(F)F)cc2)C(=O)c2c(C(=O)Nc3ncccc3F)cnn21` [compound 12], the IC50 at human mGlu2 receptor was 4.79e-08 M. The Emax at human mGlu2 receptor (setting [1]) came out at 110%.
Regarding `C[C@H]1CN(c2ccc(Cl)c(Cl)c2)C(=O)c2c(C(=O)Nc3cncc(F)n3)cnn21` [compound 146], the melting point came to 172.9 °C. The IC50 on human mGlu2 receptor is 9.55e-10 M. In addition, on human mGlu2 receptor (setting [1]), the Emax was 128%.
The like results for `C[C@H]1CN(c2ccc(C(F)(F)F)cc2)C(=O)c2c(C(=O)NCC3CCC3)cnn21` [compound 58] were, in that order, 204.6 °C, 1.82e-08 M and 113%.
On to `C[C@H]1CN(c2ccc(C(F)(F)F)cc2)C(=O)c2c(C(=O)NC(C)(C)C)cnn21` [compound 68], for which the IC50 at human mGlu2 receptor is 2.63e-07 M. Further, the Emax on human mGlu2 receptor (setting [1]) came to 102%.
For `C[C@H]1CN(c2ccc(C(F)(F)F)cc2)C(=O)c2c(C(=O)Nc3cncc(F)c3)cnn21` [13a], on human mGlu2 receptor, the IC50 is 1.1e-09 M and the “GTPγS - hmGluR2 anGT Emax” value is 106%.
In turn, `Cc1c(F)cncc1NC(=O)c1cnn2c1C(=O)N(c1ccc(C(F)(F)F)c(F)c1)C[C@@H]2C` [compound 131] returned a melting point of 186.35 °C. For the same compound, the IC50 at human mGlu2 receptor was 2.95e-09 M. For the same compound, the Emax at human mGlu2 receptor (setting [1]) amounted to 110%.
At human mGlu2 receptor, `C[C@H]1CN(c2ccc(C(F)(F)F)cc2)C(=O)c2c(C(=O)Nc3ccccc3)cnn21` [compound 57, (7S)-7-Methyl-4-oxo-N-phenyl-5-[4-(trifluoromethyl)phenyl]-6,7-dihydropyrazolo[1,5-a]pyrazine-3-carboxamide] had an IC50 of 1.7e-09 M. In addition, the Emax on human mGlu2 receptor (setting [1]) was 102%.
Consider `Cc1cccc(NC(=O)c2cnn3c2C(=O)N(c2ccc(C(F)(F)F)cc2)C[C@@H]3C)n1` [compound 17], for which, on human mGlu2 receptor, the “GTPγS - hmGluR2 anGT pIC50” value turned out to be 7.39 and the “GTPγS - hmGluR2 anGT Emax” value was 107%.
On human mGlu2 receptor, `C[C@H]1CN(c2ccc(C(F)(F)F)cc2)C(=O)c2c(C(=O)Nc3ccc(F)nc3)cnn21` [compound 55, (7S)—N-(6-fluoro-3-pyridyl)-7-methyl-4-oxo-5-[4-(trifluoromethyl)phenyl]-6,7-dihydropyrazolo[1,5-a]pyrazine-3-carboxamide] gave an IC50 of 5.62e-09 M. Further, the Emax on human mGlu2 receptor (setting [1]) is 101%.
Take `COCC1CN(c2ccc(C(F)(F)F)cc2)C(=O)c2c(C(=O)Nc3cnccn3)cnn21` (single isomer, unassigned) [compound 155]: at human mGlu2 receptor, the “GTPγS - hmGluR2 anGT pIC50” value came to 6.48 and the “GTPγS - hmGluR2 anGT Emax” value is 106%.
In turn, `C[C@H]1CN(c2ccc(C(F)(F)F)cc2)C(=O)c2c(C(=O)NC=O)cnn21` [compound 134] gave an IC50 at human mGlu2 receptor of 6.31e-08 M. Further, on human mGlu2 receptor (setting [1]), the maximal response (Emax) is 103%.
On to `COCC1CN(c2ccc(C(F)(F)F)cc2)C(=O)c2c(C(=O)Nc3cccnc3)cnn21` (racemic) [compound 165], for which, at human mGlu2 receptor, the “GTPγS - hmGluR2 anGT pIC50” value stood at 8.03 and the “GTPγS - hmGluR2 anGT Emax” value turned out to be 106%.
Consider `C[C@H]1CN(c2ccc(C(F)(F)F)cc2)C(=O)c2c(C(=O)Nc3cncc(F)c3)cnn21` (as salt: HCl) [13a], for which the melting point was 146.4 °C.
The compound `C[C@H]1CN(c2ccc(C(F)(F)F)cc2)C(=O)c2c(C(=O)NC3CCOCC3)cnn21` [compound 66] showed an IC50 on human mGlu2 receptor of 1.86e-07 M. The Emax on human mGlu2 receptor (setting [1]) was found to be 103%.
Turning to `COc1ccc(NC(=O)c2cnn3c2C(=O)N(c2ccc(C(F)(F)F)cc2)C[C@@H]3C)nc1` [compound 102], at human mGlu2 receptor, the “GTPγS - hmGluR2 anGT pIC50” value turned out to be 7.67 and the “GTPγS - hmGluR2 anGT Emax” value worked out at 112%.
On human mGlu2 receptor, `COCC1CN(c2ccc(C(F)(F)F)cc2)C(=O)c2c(C(=O)Nc3cnccn3)cnn21` (stereo not shown) [compound 163] gave an IC50 of 1.02e-08 M. In addition, the Emax on human mGlu2 receptor (setting [1]) was 107%.
For the compound `COCC1CN(c2ccc(C(F)(F)F)c(Cl)c2)C(=O)c2c(C(=O)Nc3cccnc3)cnn21` (stereo not shown) [compound 164], on human mGlu2 receptor, the IC50 was 1.91e-09 M. In addition, the Emax on human mGlu2 receptor (setting [1]) was found to be 108%.
The matching figures for `COCC1CN(c2ccc(C(F)(F)F)c(Cl)c2)C(=O)c2c(C(=O)Nc3cccnc3)cnn21` (single isomer, unassigned) [compound 157]: 2.82e-07 M and 104%.
On to `COCc1cc(NC(=O)c2cnn3c2C(=O)N(c2ccc(C(F)(F)F)cc2)C[C@@H]3C)ccn1` [compound 149], for which, on human mGlu2 receptor, the “GTPγS - hmGluR2 anGT pIC50” value turned out to be 7.69 and the “GTPγS - hmGluR2 anGT Emax” value worked out at 104%.
For `Cc1cc(C(=O)NC(=O)c2cnn3c2C(=O)N(c2ccc(C(F)(F)F)cc2)C[C@@H]3C)ccn1` [compound 135, (7S)-7-Methyl-N-(2-methylpyridine-4-carbonyl)-4-oxo-5-[4-(trifluoromethyl)phenyl]-6,7-dihydropyrazolo[1,5-a]pyrazine-3-carboxamide], the IC50 at human mGlu2 receptor was 6.92e-07 M. Also, the Emax at human mGlu2 receptor (setting [1]) was 111%.
For the compound `C[C@H]1CN(c2ccc(C(F)(F)F)c(CF)c2)C(=O)c2c(C(=O)Nc3cccnc3)cnn21` [compound 53], on human mGlu2 receptor, the “GTPγS - hmGluR2 anGT pIC50” value was 8.61 and the “GTPγS - hmGluR2 anGT Emax” value was determined as 114%.
